Assay results from ChEMBL document CHEMBL4828739, “Study on the structure-activity relationship of dihydroartemisinin derivatives: Discovery, synthesis, and biological evaluation of dihydroartemisinin-bile acid conjugates as potential anticancer agents” (Eur J Med Chem, 2021).

What was measured:
Assay type in all cases: ADME, organism-based
[1] = Cmax in Sprague-Dawley rat plasma at 10 mg/kg, po by UPLC-MS/MS analysis; parameters: route oral, dose 10 mg/kg
[2] = AUC (0 to infinity) in Sprague-Dawley rat plasma at 10 mg/kg, po by UPLC-MS/MS analysis; parameters: time infinity, route oral, dose 10 mg/kg
[3] = Tmax in Sprague-Dawley rat plasma at 10 mg/kg, po by UPLC-MS/MS analysis
[4] = Clearance in Sprague-Dawley rat plasma at 5 mg/kg, iv by UPLC-MS/MS analysis
[5] = AUClast in Sprague-Dawley rat plasma at 5 mg/kg, iv by UPLC-MS/MS analysis; parameters: route intravenous, time 0 - last, dose 5 mg/kg
[6] = AUClast in Sprague-Dawley rat plasma at 10 mg/kg, po by UPLC-MS/MS analysis; parameters: route oral, time 0 - last, dose 10 mg/kg
[7] = Half life in Sprague-Dawley rat plasma at 10 mg/kg, po by UPLC-MS/MS analysis
[8] = Half life in Sprague-Dawley rat plasma at 5 mg/kg, iv by UPLC-MS/MS analysis
[9] = AUC (0 to infinity) in Sprague-Dawley rat plasma at 5 mg/kg, iv by UPLC-MS/MS analysis; parameters: route intravenous, time infinity, dose 5 mg/kg
[10] = Oral bioavailability in Sprague-Dawley rat plasma at 10 mg/kg by UPLC-MS/MS analysis
[11] = MRT (0 to infinity) in Sprague-Dawley rat plasma at 5 mg/kg, iv by UPLC-MS/MS analysis
[12] = Volume of distribution at steady state in Sprague-Dawley rat plasma at 5 mg/kg, iv by UPLC-MS/MS analysis; details: read-out: Vdss

**Q.** With C[C@H]1[C@@H](O[C@@H]2CC[C@@]3(C)[C@@H](C2)C[C@H](O)[C@@H]2[C@@H]3CC[C@]3(C)[C@@H]([C@H](C)CCC(=O)O)CC[C@@H]23)O[C@@H]2O[C@]3(C)CC[C@H]4[C@H](C)CC[C@@H]1[C@@]24OO3 as the molecule, how does the Cmax [1] read?
**A.** 1110 ng/mL

**Q.** What about the AUC(0-inf) [2] of the same molecule?
**A.** 4430 ng·h/mL

**Q.** What about the Tmax [3] of the same molecule?
**A.** 100 min

**Q.** And the clearance [4]?
**A.** 8.2 mL/min/kg

**Q.** And the AUC(0-t) [5]?
**A.** 10200 ng·h/mL

**Q.** What about the AUC(0-t) [6] of the same molecule?
**A.** 4190 ng·h/mL

**Q.** And the half-life [7]?
**A.** 49.4 min

**Q.** And the half-life [8]?
**A.** 46.4 min

**Q.** What about the AUC(0-inf) [9] of the same molecule?
**A.** 10200 ng·h/mL

**Q.** And the bioavailability [10]?
**A.** 20.6%

**Q.** What about the MRT inf [11] of the same molecule?
**A.** 42.2 min

**Q.** And the Vd [12]?
**A.** 0.346 L/kg
